Source: paper PMC6614837 (Nucleic Acids Research, 2019)

T1: RNase P holoenzyme from Thermotoga maritima (Thermotoga maritima, UniProt Q9X1H4)
T1 construct: made in house
T1 sequence (Q9X1H4 1-117): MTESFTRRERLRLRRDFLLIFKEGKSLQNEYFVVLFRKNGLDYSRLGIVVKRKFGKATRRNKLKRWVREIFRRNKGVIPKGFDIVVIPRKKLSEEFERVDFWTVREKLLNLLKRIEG

T2: RNase P protein (TmP, P protein) (Thermotoga maritima, UniProt Q9X1H4 1-117)
T2 sequence: T1 sequence (Q9X1H4 1-117)


What was measured:
[1] = biological target: T1, RNase P holoenzyme from Thermotoga maritima; test: Real-time fluorescence-based (FRET) RNase P activity assay with minihelix (Mh) substrate; assay type: biochemical; settings: fluorescent Mh substrate 270 nM, holoenzyme 33 nM, 10% DMSO, 37°C, 400 mM AmOAc, 100 mM MgCl2
How it was run: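 Reconstituted holoenzyme (P RNA:P protein 1:1.1) at 33 nM with 270 nM minihelix labelled Alexa Fluor 488/BHQ quencher, in buffer H (pH 7.4, 400 mM AmOAc, 100 mM MgCl2), 10% DMSO, 37°C. Cleavage followed as fluorescence increase (ex 485, em 535 nm); initial velocities from linear slopes.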

[2] = biological target: Bacillus subtilis RNase P; parameters: method as in PMID 25249623; settings: fluorescent pre-tRNA substrate ref 26; read-out: Reported IC50; cited from earlier work
[3] = biological target: T2, RNase P protein (TmP, P protein); test: BLI; 10 mM Mg2+, 5% DMSO; BLI (Octet RED96): 20 mM HEPES pH 7.4, 100 mM ammonium acetate, 10 mM MgCl2, 2.5-5% DMSO, 30 C; P protein:P RNA in 33 mM Tris, 66.6 mM HEPES, 200 mM ammonium acetate, 10 mM MgCl2, pH 7.4; settings: protein: recombinant; tags: N-terminal His6 (GST fusion cleaved with TEV); single strand

Molecule	IC50 [1] [nM]	IC50 [2] [nM]	Kd [3] [nM]
CC(=O)Oc1cc(-c2coc3cc(OC(C)=O)c(OC(C)=O)c(OC(C)=O)c3c2=O)cc(OC(C)=O)c1OC(C)=O [iriginol hexaacetate, reference compound]	29500	800	–
GGAAAAAGAU (ssRNA) [5' RNA leader (10 nt)]	–	–	35.6
